CC(C)(N)C(=O)O
solubility (mole fraction)
Conditions	283.15 K	288.15 K	293.15 K	298.15 K	303.15 K	308.15 K	313.15 K	318.15 K	323.15 K
in 2-butanone	0.000215	0.000258	0.000319	0.000415	0.000507	0.000599	0.00068	0.000803	0.000946
in DMF	5.8e-05	0.00019	0.000365	0.00067	0.00102	0.00163	0.00245	0.00356	0.00462
in acetone	6e-05	9.7e-05	0.00016	0.000211	0.000253	0.000319	0.000386	0.000442	0.000501
in acetonitrile	0.000123	0.00014	0.000163	0.000189	0.000218	0.00024	0.000277	0.000317	0.000366
in ethanol	0.000102	0.000183	0.000277	0.000376	0.000479	0.000579	0.000669	0.000763	0.000879
in ethyl acetate	0.000164	0.000246	0.000353	0.000507	0.000635	0.000808	0.000949	0.00111	0.00137
in isopropanol	0.000157	0.000176	0.000198	0.000227	0.000275	0.000336	0.000396	0.000466	0.000576
in methanol	0.000625	0.000658	0.000715	0.000792	0.000878	0.000947	0.00106	0.00117	0.0013
in methyl acetate	6.8e-05	0.000102	0.00013	0.000168	0.00021	0.000248	0.000306	0.000364	0.000436
in n-butanol	0.000158	0.000219	0.00027	0.000334	0.00043	0.000518	0.00065	0.000783	0.000963
in n-pentanol	0.0002	0.000248	0.000302	0.000369	0.000448	0.000523	0.000616	0.000721	0.000843
in n-propanol	0.00015	0.000207	0.000302	0.000388	0.000466	0.000553	0.000659	0.000774	0.000945
in water	0.0256	0.0259	0.0261	0.0266	0.0269	0.0273	0.0276	0.0282	0.0291
